Entries after “also recorded” stand apart in the source; their conditions may differ.

The values that follow come from patent publication US6407237B1, “Crystal forms of 9-substituted hypoxanthine derivatives” (NeoTherapeutics, Inc., priority 2000, dated 2002).

Data set [1] can be described thus: Hygroscopicity of the crystal structure. It counts as physicochemical.
Data set [2] is described as follows: Hydration and dehydration (interconversion) studies of crystal structures, checked by X-ray powder pattern. The format is physicochemical. Conditions: for crystal structure after incubation in humid chamber (H2O vapor) at 25° C. / crystal structure after incubation in humid chamber (H2O vapor) at 70° C.: 48 h. How it is done:
X-ray powder patterns were measured with a β-Generator Philips PW 1120/90 equipped with a CuKα Guinier-de Wolff Camera No. 11 (Enraf-Nonius).
Starting from different crystal structures, hydration and dehydration studies were performed (FIG. 1, Table 2). The crystal structure designated Type I (lot NTA-107-B) is obtained by equilibration of Type II (lot NTA-107-A) with water vapor in a humid chamber, whereas Type III was generated by dehydration of Type I in a vacuum drying oven at elevated temperature (Tables 1 and 2). The X-ray powder patterns of the Type I and II crystal structures are not sensitive to small changes in the water content and appear uniform from batch to batch.
The well-resolved powder diagrams of these two forms indicate well ordered crystal lattice structures (FIG. 3). […] The manufacturing process leads to a water-soluble (5% w/v) crystalline product of the monopotassium salt of N-4-carboxyphenyl-3-(6-oxohydropurin-9-yl) propanamide monohydrate Type I (active pharmaceutical ingredient). N-4-carboxyphenyl-3-(6-oxohydropurin-9-yl) propanamide monopotassium salt exists, as known so far, in three different crystal structures (Types I-III) depending upon the water content.

Data set [3] is classed as physicochemical. The source says:
The occurrence of polymorphic forms can be examined by various physico-chemical investigation techniques. The solubility measured under defined conditions can provide information regarding the occurrence of different crystal structures. However, the preferred technique for the investigation of the polymorphism of N-4-carboxyphenyl-3-(6-oxohydropurin-9-yl) propanamide monopotassium salt is the analysis of the X-ray diffraction powder diagrams, which allows the distinct crystal structures to be clearly distinguished by their characteristic powder patterns. The powder pattern, position, intensity and sharpness of the bands are dependent upon the crystal structure and the fine arrangement of the atoms in the crystal lattice, which in turn are both influenced by the content of crystal water. For this study, material from different batches of N-4-carboxyphenyl-3-(6-oxohydropurin-9-yl) propanamide monopotassium salt was used, either in the original or in a dry or wet state (Table 1).
In aqueous solutions prepared with material which was synthesized by the route designated “direct crystallization” a fine microcrystalline precipitate of the N-4-carboxyphenyl-3-(6-oxohydropurin-9-yl) propanamide free acid was formed after 2-3 min. Although the assay of K is 1.0 equivalent and although direct crystallized K-salt is isolated at equal or slightly higher pH (H 8.7) than K-salt synthesized from N-4-carboxyphenyl-3-(6-oxohydropurin-9-yl) propanamide free acid (pH 8.5), only the latter is completely soluble in water. […] The free acid precipitates and generates the di-K salt until its concentration is high enough to keep the precipitation and dissolution of the free acid at equilibrium. The solubility of N-4-carboxyphenyl-3-(6-oxohydropurin-9-yl) propanamide Type II (lot Am 960/a) in aqueous solution was measured as a function of temperature (FIG. 2). In the solubility curve a plateau is reached at 70° C. (17% w/w).

Take `O.O=C(CCn1cnc2c(=O)[nH]cnc21)Nc1ccc(C(=O)[O-])cc1.[K+]` [Type I, N-4-carboxyphenyl-3-(6-oxohydropurin-9-yl) propanamide monopotassium salt monohydrate]: in data set [1], the hygroscopicity result is reported as “only slightly hygroscopic”. Further, in data set [2] (monopotassium salt monohydrate), the “crystal structure after incubation in humid chamber (H2O vapor) at 25° C.” value (“crystal structure after incubation … at 25° C.” below) is “stable; also recorded: remains unchanged; also recorded: Type I” and the “crystal structure after incubation in humid chamber (H2O vapor) at 70° C.” value was “stable; also recorded: remains unchanged; also recorded: Type I”. In addition, the “crystal structure after strong drying in vacuum oven” value in data set [2] (140° C., 5 mbar, monopotassium salt monohydrate) was “Type III was obtained”.
On to `O=C(CCn1cnc2c(=O)[nH]cnc21)Nc1ccc(C(=O)[O-])cc1.[K+]` [Type III, N-4-carboxyphenyl-3-(6-oxohydropurin-9-yl) propanamide monopotassium salt], for which the “crystal structure after incubation … at 25° C.” value in data set [2] (monopotassium salt) is “turns completely into Type I”.
`O=C(CCn1cnc2c(=O)[nH]cnc21)Nc1ccc(C(=O)[O-])cc1.[K+]` [Type II, N-4-carboxyphenyl-3-(6-oxohydropurin-9-yl) propanamide monopotassium salt]: in data set [3], the “solubility in aqueous solution as a function of temperature, plateau of solubility curve” value is on record as 17 % w/w and the solubility in water result is given as “about 10 % (w/v)”. Moreover, in data set [2] (monopotassium salt), the “crystal structure after incubation … at 25° C.” value was “Type II” and the “crystal structure after incubation in humid chamber (H2O vapor) at 70° C.” value is “interconversion of Type II into Type I crystal structure”.
Turning to `O=C(CCn1cnc2c(=O)[nH]cnc21)Nc1ccc(C(=O)O)cc1` [free acid, N-4-carboxyphenyl-3-(6-oxohydropurin-9-yl) propanamide], the “solubility of the free acid in water” value in data set [3] is listed as “extreme low solubility”.
